Calls of active or inactive are those of the source. The calls are words filed in the database; no cut-off is given here.
Assays:
NIH3T3 = assay: Cytotoxicity against mouse NIH/3T3 cells assessed as reduction in cell viability after 72 hrs by CyQuant dye-based assay
MDA-MB-231 = assay: Cytotoxicity against human MDA-MB-231 cells assessed as reduction in cell viability after 72 hrs by CyQuant dye-based assay; type: functional
U-251 [1] = assay: Cytotoxicity against human U251MG cells assessed as reduction in cell viability after 72 hrs by CyQuant dye-based assay; type: functional
[2] = target: Signal transducer and activator of transcription 3 (Homo sapiens) (UniProt P40763); assay: Inhibition of STAT3 DNA binding activity in human U251MG nuclear extract at 5 uM preincubated for 30 mins followed by addition of [32P]hSIE measured up to 24 hrs by electrophoretic mobility shift assay
Chain of Signal transducer and activator of transcription 3 (Homo sapiens) (P40763 whole entry): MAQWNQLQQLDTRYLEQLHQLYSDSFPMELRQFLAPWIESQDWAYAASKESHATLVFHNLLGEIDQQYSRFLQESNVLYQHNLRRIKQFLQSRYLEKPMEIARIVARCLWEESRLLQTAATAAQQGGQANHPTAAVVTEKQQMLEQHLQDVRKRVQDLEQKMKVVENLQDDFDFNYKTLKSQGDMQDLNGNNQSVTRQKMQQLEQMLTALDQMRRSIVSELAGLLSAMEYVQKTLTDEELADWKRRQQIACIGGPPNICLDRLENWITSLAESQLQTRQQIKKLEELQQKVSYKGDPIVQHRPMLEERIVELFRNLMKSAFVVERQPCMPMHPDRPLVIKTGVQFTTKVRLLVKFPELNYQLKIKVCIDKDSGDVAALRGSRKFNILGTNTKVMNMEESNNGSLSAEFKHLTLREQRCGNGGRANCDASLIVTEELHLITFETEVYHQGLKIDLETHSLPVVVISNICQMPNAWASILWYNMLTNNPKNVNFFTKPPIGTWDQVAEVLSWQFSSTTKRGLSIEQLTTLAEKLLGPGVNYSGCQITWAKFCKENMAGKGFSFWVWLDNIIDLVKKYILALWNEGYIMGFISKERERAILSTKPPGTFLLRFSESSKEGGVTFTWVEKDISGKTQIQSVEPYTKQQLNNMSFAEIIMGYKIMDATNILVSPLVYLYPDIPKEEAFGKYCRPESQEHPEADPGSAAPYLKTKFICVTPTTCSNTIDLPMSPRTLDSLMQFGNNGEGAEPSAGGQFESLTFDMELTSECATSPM

U-251 [3] = assay: Antimigratory activity in human U251MG cells at 2.5 to 5.0 uM after 18 hrs by inverted fluorescence microscopic method-based wound-healing assay; type: functional, cell-based
[4] = target: Signal transducer and activator of transcription 3 (Homo sapiens) (UniProt P40763); assay: Inhibition of STAT3 activity in human U251MG cells assessed as downregulation of STAT3 phosphorylation at Tyr705 residue at 5 uM up to 24 hrs by Western blot analysis; type: cell-based
[5] = Homo sapiens, U-251, 72 h, read-out: IC50

Row | SMILES | IC50 (NIH3T3) | IC50 (MDA-MB-231) | IC50 (U-251 [1]; [5]) | IC50 (U-251 [1]; u-251) | inhibition [2] | Activity (U-251 [3]) | inhibition [4]
1 | CC(C)=CC[C@@H]1C[C@]23C[C@H](CC=C(C)C)C(C)(C)[C@](CC=C(C)C)(C(=O)C(C(=O)c4ccc(O)c(O)c4)=C2OC1(C)C)C3=O [ISOXANTHOCHYMOL] | Non-Toxic | Not Active | 6 µM | – | – | – | –
2 | C=C(C)CCC(CC12CC3C(C=C(C)C)C(C(=O)c4ccc(O)c(O)c4)(CC(CC=C(C)C)(C1=O)C3(C)C)C2=O)C(=C)C (centres undefined) | Non-Toxic | Not Active | – | Not Active | – | – | –
3 | CC(C)=CC[C@H]1C[C@@]23C[C@@H](CC=C(C)C)C(C)(C)[C@@](CC=C(C)C)(C(=O)C(C(=O)c4ccc(O)c(O)c4)=C2OC1(C)C)C3=O [CAMBOGIN] | Non-Toxic | Not Active | 2.8 µM | – | – | – | –
4 | CC(C)=CC[C@H]1C[C@]23C[C@@H]4CC=C(C)C[C@]4(C)C[C@@]2(O)c2c(oc4cc(O)c(O)cc4c2=O)[C@@](CC=C(C)C)(C3=O)C1(C)C | Non-Toxic | Not Active | 1.8 µM | – | – | – | –
5 | C=C(C)[C@H]1C[C@@]23C[C@@H](CC=C(C)C)C(C)(C)[C@@](CC=C(C)C)(C(=O)C(C(=O)c4ccc(O)c(O)c4)=C2O[C@@H]1C=C(C)C)C3=O | Non-Toxic | Not Active | 3.7 µM | – | Active | Active | –
6 | C=C(C)CC[C@H]1C[C@]23C[C@H](CC=C(C)C)C(C)(C)[C@](CC=C(C)C)(C2=O)c2oc4cc(O)c(O)cc4c(=O)c2[C@]3(O)CC1=C | Non-Toxic | Not Active | 3.5 µM | – | – | – | –
7 | C=C(C)C(CC=C(C)C)C[C@@]12C[C@@H](CC=C(C)C)C(C)(C)[C@@](CC=C(C)C)(C(=O)C(C(=O)c3cccc(O)c3)=C1O)C2=O (some centres undefined) | Non-Toxic | Not Active | 1.3 µM | – | – | – | –
8 | C=C(C)CC[C@H](C[C@]12C[C@H](CC=C(C)C)C(C)(C)[C@](CC=C(C)C)(C(=O)C(C(=O)c3ccc(O)c(O)c3)=C1O)C2=O)C(=C)C | – | – | – | – | – | – | Active

— ChEMBL document CHEMBL4052778, “Bioactive polyprenylated benzophenone derivatives from the fruits extracts of Garcinia xanthochymus” (Bioorg Med Chem Lett, 2017)
